Data reported in patent US20170152245A1 (National Taiwan University, priority 2015, published 2017).
Where two headings read alike, the source gives them in different places.

How the values were obtained:
[1] = system: mesenteric venules of mice; assay: Fluorescein sodium-induced platelet thrombus formation in mesenteric venules of mice; format: in vivo; settings: for average time to occlusion (TTO): 10 μg/g i.v., mice; for occlusion time: i.v., 5 min after administration
Procedure: A modification of the method was used. Male ICR mice (12-14 g) were anesthetized with sodium pentobarbital (50 mg/kg, i.p.). […] Five min later, various doses of nstpbp5185 (2 and 4 μg/g), aspirin (150 and 250 μg/g), or DMSO (control) were administered by i.v. through other lateral tail vein. The injected volume of the nstpbp5185, aspirin, or DMSO (control) was smaller than 10 μl. A segment of the small intestine with its mesentery attached was exteriorized through a midline incision on the abdominal wall and placed onto a transparent plastic plate for microscopic observation. Frequent rinsing of the mesentery with warm isotonic saline kept at 37° C. was performed to prevent the mesentery from drying out. Microvessels in the mesentery were observed under transillumination from a halogen lamp. Venules with diameters of 30-40 μm were selected to be irradiated to produce a microthrombus. In the epi-illumination system, light from a 100-W mercury lamp was filtered through a filter (B-2A, Nikon, Tokyo, Japan) with a dichromic mirror (DM 510, Nikon). The filtered light eliminated wavelengths below 520 nm irradiated a microvessel through an objective lens (20×). The area of irradiation was about 100 μm in diameter on the focal plane. Ten minutes after administration of the dye, the irradiation by filtered light and a timer were simultaneously started, and thrombus formation was observed on a TV-monitor. Occlusion time was recorded as the time interval for inducing thrombus formation leading to cessation of blood flow.
After giving 50 μg/g fluorescein sodium, the irradiation of mesenteric venules induced thrombus formation which is consist of activated platelets and fibrin clots. […] In the vehicle-treated group, the average TTO was approximately 143.71±4.99 sec (n=17). The group pre-treated with compound 5185 (10 μg/g), the average TTO value was 208.67±6.99 sec (n=12).

[2] = system: human platelet suspension; assay: Arachidonic acid-induced platelet aggregation in human platelet suspension; format: cell-based; settings: AA 200 μM
Procedure: (§1) Human platelet suspension (PS) was prepared according to the method described previously. Briefly, blood sample, freshly obtained from healthy volunteers who had taken no medications during the preceding 2 weeks, was treated with acid citrate/dextrose (ACD) in a volume ratio of 9:1. After centrifugation at 120 g, 25° C. for 9 min, platelet-rich plasma was transferred into another plastic tube and incubated with heparin (6.4 U/ml) as well as prostaglandin E1 (1 μM). Platelets were spun down by centrifugation at 500 g, 25° C. for 8 min and subsequently washed two times with Tyrode solution (NaH2PO4 0.4 mM; NaCl 136.9 mM; KCl […]; NaHCO3 11.9 mM; CaCl2 2 mM; MgCl2 2.1 mM; glucose 11.1 mM; BSA 3.5 mg/ml; pH 7.35-7.4). The washed platelets were finally suspended in Tyrode's solution and the platelet count was adjusted to 3.75×10^8 platelets/ml. For platelet-rich plasma (PRP) preparation, whole blood was anticoagulated with 1/10 vol of sodium citrate (3.8%, w/v) and centrifuged at 150 g, 25° C. for 9 min.
Platelet aggregation was measured turbidimetrically with a Lumi-aggregometer (Payton Scientific) at 37° C. under stirring condition (900 rpm). Platelet suspensions were prewarmed to 37° C. for 2 min in a silicone-treated glass cuvette. Nstpbp5185 was added 3 min before the addition of platelet-aggregation inducers. The extent of platelet aggregation was determined by recording the increase of light transmission relative to that of control (maximal aggregation, as 100%) for 6 min after the addition of inducer. The final volume and platelet count for measuring platelet aggregation were 500 μl and 3×10^8/ml, respectively.

TP receptor = target: T1, TP receptor (Homo sapiens, UniProt P21731); assay: [3H]SQ-29548 binding to TP receptor of recombinant HEK-293 cells
T1 construct: expressed in transfected cells; host or cells: HEK-293
T1 sequence (P21731 1-343): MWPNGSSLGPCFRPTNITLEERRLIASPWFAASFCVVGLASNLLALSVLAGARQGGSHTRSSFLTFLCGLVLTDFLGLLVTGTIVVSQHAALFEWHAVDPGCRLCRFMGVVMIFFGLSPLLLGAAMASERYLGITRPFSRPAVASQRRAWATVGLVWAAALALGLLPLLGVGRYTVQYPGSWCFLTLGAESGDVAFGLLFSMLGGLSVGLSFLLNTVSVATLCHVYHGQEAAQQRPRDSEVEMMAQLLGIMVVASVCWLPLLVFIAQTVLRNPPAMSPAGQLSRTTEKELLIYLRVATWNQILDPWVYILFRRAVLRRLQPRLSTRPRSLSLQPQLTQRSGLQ
Procedure: Freshly prepared samples of this suspension were incubated with [^3H]SQ-29548 (5 nM final concentration), for 60 min at 25° C. The displacement was initiated by addition of nstpbp5185 dissolved in the same buffer. After incubation (30 min, 25° C.), ice-cold Tris-HCl buffer (10 mM, pH 7.4) was added, the sample was rapidly filtered through a glass fiber filter, and the tube rinsed twice with ice-cold buffer. The filters were then placed in plastic scintillation vials containing an emulsion-type scintillation mixture, and the radioactivity was counted.

[3] = system: human platelet suspension; assay: Thrombin-induced platelet aggregation in human platelet suspension; format: cell-based; settings: data not shown
Procedure: as §1
Platelet aggregation was measured turbidimetrically with a Lumi-aggregometer (Payton Scientific) at 37° C. under stirring condition (900 rpm). […] The extent of platelet aggregation was determined by recording the increase of light transmission relative to that of control (maximal aggregation, as 100%) for 6 min after the addition of inducer. […]

Row | SMILES | average time to occlusion (TTO) [1] | IC50 [2] | occlusion time within 70 min after administration ([1]; 4 μg g^−1 i.v.) | time until occlusion time returned to the control value ([1]; 4 μg g^−1 i.v.) | occlusion time ([1]; 4 μg/g) | occlusion time ([1]; first dose of 'respectively' (2 μg/g)) | Thromboxane receptor (TP receptor; Table III arrows) | IC50 (TP receptor; [3H]SQ-29548 5 nM, read-out: IC50 in displacing 3H-SQ-29548 from TP receptor expressed on HEK-293 cells) | IC50 (TP receptor; read-out: thromboxane A2 receptor blockade IC50) | effect on platelet aggregation caused by thrombin [3]
1 | Cc1ccc(-c2nc3ccc(F)cc3n2Cc2cccc(F)c2)o1 [Ctkf6f2, 6-fluoro-1-(3-fluorobenzyl)-2-(5-methyl-2-furyl)benzimidazole] | 267.93 ± 12.64 s | 3200 ± 990 nM | – | – | – | – | – | – | – | –
2 | Cc1ccc(-c2nc3ccccc3n2Cc2ccccc2)o1 [Example 6, 1-Benzyl-2-(5-methyl-2-furyl)benzimidazole] | 208.67 ± 6.99 s | 3900 ± 200 nM | 157.5 ± 12.5 s | ≤ 90 min | 170.9 ± 28.0 s | 110.5 ± 18.0 s | ↓ | ~100 nM | 100 nM | little effects
